This is an account of results in the NIST ThermoML archive (doi:10.1016/j.fluid.2017.09.007).

The conditions of data set [1]: Crystal; DTA.
Data set [2] can be described thus: Molar enthalpy of transition or fusion. Particulars: Crystal; DSC.

Numbers after ± are expanded uncertainties.

On to `C[C@]12CCC(=O)C=C1CC[C@@H]1[C@@H]2[C@@H](O)C[C@@]2(C)[C@H]1CC[C@]2(O)C(=O)CO` [11β,17α,21-trihydroxypregn-4-ene-3,20-dione], for which the Normal melting temperature in data set [1] came to 221.60 ± 1.1 °C. In data set [2], the “Molar enthalpy of transition or fusion” value was 9.15 ± 0.311 kcal/mol.
